Measured values as given in paper PMC8470881, “Membrane Interactions of Latarcins: Antimicrobial Peptides from Spider Venom” (International Journal of Molecular Sciences, 2021).
No end group written: not given here.

What was measured:
[1] = tested on: Bacillus subtilis subsp. spizizenii (DSM 347), Staphylococcus xylosus (DSM 20267), Escherichia coli (DSM 1116), Acinetobacter sp. (DSM 586); details: for MIC: irrespective of the bacterial strain (all four strains), Müller-Hinton medium, 20 h at 37 °C, maximum tested 256 µg/mL
Method: The effect of latarcins against four types of bacteria was determined using a minimum inhibitory concentration (MIC) assay on two Gram-positive strains (Bacillus subtilis subsp. spizizenii and Staphylococcus xylosus) and two Gram-negative strains (Escherichia coli and Acinetobacter sp.). Although the antimicrobial activity of latarcins is well documented, these experiments served to ensure that all studies were performed on molecules that show the expected antimicrobial activity.
The minimum inhibitory concentration (MIC) was determined as previously reported. For each latarcin, MIC was determined against two Gram-positive strains, namely Bacillus subtilis subsp. spizizenii (DSM 347) and Staphylococcus xylosus (DSM 20267), and two Gram-negative strains: Escherichia coli (DSM 1116) and Acinetobacter sp. (DSM 586). Bacterial cultures were grown in Müller-Hinton medium (MHM) as described previously, and peptides were dissolved in sterile water containing 10% DMSO. The stock solution of peptides with 1024 µg/mL was prepared such that serial dilutions of peptides (from 256 µg/mL to 2 µg/mL) in MHM were prepared in 96-well plates with the penultimate column without peptide to act as positive control (no peptide) and the final column as negative control (no bacteria). Bacterial stock suspension was made with an OD of 0.2 units at 550 nm. This stock solution was further diluted (1:1000 for Gram-negative bacteria and 1:100 for Gram-positive bacteria), and subsequently, 50 µL of the resulting bacterial suspension was added to the wells except the final well to give a final concentration of 10^6 colony-forming units per mL. Afterwards, the 96-well plates were incubated at 37 °C for 20 h, and cellular respiration was detected by adding 20 µL of resazurin solution (200 µg/mL) for an additional 2 h at the same temperature.

[2] = Circular dichroism spectroscopy (secondary structure); type: physicochemical; details: CD in DMPC/DMPG (7/3) SUVs, P/L = 1:50, 10 mM phosphate buffer pH 7.0, 30 °C, peptide 29.3 μM; deconvolution with CDSSTR, CONTIN-LL, SELCON-3
Source text: Next, we compared the secondary structure of the full set of latarcins in the presence of lipid membranes, for which there are no complete data available yet.
The CD line shapes (Figure 2) were deconvoluted to estimate the secondary structure contributions (Supplementary Table S1) using the CDSSTR, CONTIN-LL, and SELCON-3 algorithms provided on the DICHROWEB online server as described previously. […] In peptides containing a high proportion of aromatic residues, such shifts of the long-wavelength band are well documented.
Small unilamellar vesicles (SUVs) for the CD measurements were prepared as follows. Weighed amounts of the lipid powders (DMPC, DMPG) were dissolved in chloroform/methanol 1/1 (v/v) to obtain 5 mg/mL stock solutions. For obtaining mixed DMPC/DMPG liposomes (7/3 molar ratio), the appropriate aliquots of these stock solutions were pipetted in a glass vial and thoroughly vortexed. The organic solvents were removed under a gentle stream of nitrogen gas, followed by 3 h of vacuum pumping in an exsiccator at a reduced pressure of 3-4 mbars to remove solvent residuals from the lipid film that had formed in the vial. The lipid film was dispersed by the addition of 10 mM phosphate buffer (PB) pH 7.0 and homogenized by vigorously vortexing for 10 × 1 min and 10 freeze–thaw cycles. SUVs were formed by sonication of the obtained multilamellar vesicles for 16 min in a strong ultrasonic bath (UTR 200, Hielscher, Germany). The temperature of the water in the ultrasonic bath was adjusted to 35 °C by circulating it through a thermostat to avoid overheating the samples. A weighed amount of the corresponding peptide was dissolved in water resulting in stock solutions with a peptide concentration of 0.5 mg/mL. For the final CD samples, each peptide stock solution was diluted to 29.3 μM and the corresponding lipid dispersion to 1.47 mM in 10 mM PB, resulting in a peptide-to-lipid (P/L) ratio of 1/50.
[…] The samples were measured in a 1-millimeter path length quartz glass cell (Suprasil, Hellma Müllheim, Germany) between 260 and 185 nm at 0.5 nm intervals. Spectra of the liposome samples were recorded at 30 °C, i.e., well above the phase transition temperature of the lipids, using a water-thermostated rectangular cell holder. Three repeat scans at a scan rate of 10 nm min^−1, 8 s response time, and 1 nm bandwidth were averaged for each sample, and the baseline spectrum of the respective peptide-free sample was subtracted from the sample spectrum. CD spectra were smoothened by a Savitzky-Golay filter (convolution width of 15 data points), which is implemented in the Jasco Spectra Analysis software.

[3] = Oriented circular dichroism (helix alignment in membrane); type: physicochemical; details: DMPC/DMPG (7/3), P/L = 1:100, oriented hydrated bilayers, 30 °C
Source text: This is the same lipid composition and peptide-to-lipid ratio as was used in conventional CD above (see Figure 2), but in contrast to the vesicular samples containing excess water, the oriented membranes for OCD are just about saturated with water.
The sign and intensity of the 208 nm band provide a characteristic signature of the helix tilt angle in the membrane [19]. For a helical peptide that lies flat on the bilayer surface, this band is the most intense.
To prepare oriented CD (OCD) samples, latarcins depending on their solubility were dissolved either in pure MeOH or CHCl3/MeOH 1/1 (v/v) and thoroughly mixed with appropriate aliquots of DMPC/DMPG solutions (7/3 molar ratio) in the same solvent. Each co-dissolved mixture with a peptide-to-lipid molar ratio of 1/100 was deposited on a quartz glass plate using a gas-tight syringe. To achieve a spot size of 12.5 mm on the 20 mm diameter plates (Suprasil QS, Hellma Optik GmbH, Jena, Germany), a volume of ~55–60 µL was used. The organic solvents were evaporated in a gentle stream of air until the sample appeared dry. The amounts of deposited lipid and peptide on the plate were always 0.29 μmole and 2.9 nmole, respectively. The peptide-lipid-film was further dried under reduced pressure for at least 3 h. Afterwards, each plate with the dried sample was fixed and sealed by a polymer O-ring in a cylindrical sample holder. The plate with the sample and a second window plate without the sample formed a compartment for controlled hydration. The holder was assembled in a custom-built hydration cell. In the inner compartment of the sample holder, the peptide-lipid film was hydrated for about 15 h at 30 °C and 97% relative humidity via the gas phase by a saturated K2SO4 solution contained in an adjacent cavity of the hydration cell. During hydration, the lipids spontaneously align as lipid bilayers that are macroscopically oriented perpendicular to the glass surface. For the measurement, the holder was transferred to an OCD sample cell that had been developed and built in-house [20]. It is computer-controlled and can be integrated into a Jasco spectropolarimeter as an accessory. The optical path runs along the cylindrical axis of the cell, i.e., normal to the quartz glass plate surface carrying the oriented lipid film. To reduce possible spectral artifacts caused by linear dichroism (LD) or linear birefringence (LB) due to imperfections in the sample, strain in the quartz glass or imperfect alignment of the windows, the OCD spectra were recorded in steps of 45° by rotation of the cell around the beam axis [19, 20]. At each angle, two scans were recorded from 260–185 nm as an average, using a scan rate of 20 nm min^−1, 4 s response time, and 1 nm bandwidth.

[4] = Solid-state 15N-NMR (helix alignment in membrane); type: physicochemical; details: DMPC/DMPG (7/3), P/L = 1:100, oriented samples, solid-state 15N-NMR, 308 K
Method: While OCD provides a rough picture of the peptide alignment, the helix tilt angle can be measured rather precisely by solid-state NMR using the same type of oriented membrane sample. […] If the peptides are not helical, then the orientation cannot be determined from these ^15N-NMR spectra (which is why CD/OCD need to be performed first), but other information may be available. Oriented NMR samples were prepared at a P/L of 1/100 in DMPC/DMPG (7/3), as for CD/OCD. The ^15N-NMR spectra of all latarcins are summarized in Figure 7, along with the corresponding ^31P-NMR spectra of the phospholipid component. […] This conclusion is supported by the vesicle leakage data above.
Ltc2a, with a chemical shift of 131 ppm, on the other hand, is distinctly tilted in the membrane, as was also observed in the OCD experiments. […] Ltc3a, with a chemical shift of 93 ppm, is tilted only slightly by 10–20°. […] Given that OCD had shown distinct signs of aggregation into β-sheets, we can conclude that Ltc6a binds to the membrane and perturbs the lipid bilayer, but it is not possible to determine the molecular alignment of Ltc6a when it has most likely formed aggregates.
Macroscopically oriented NMR samples were prepared by co-dissolving appropriate amounts of peptides and lipids (in 300 μL methanol, 100 μL CHCl3, and 10–20 μL Milli-Q water) and spreading them onto 23 thin glass plates of dimensions 9 mm × 7.5 mm × 0.08 mm (Marienfeld Laboratory Glassware, Lauda-Königshofen, Germany). The peptide-to-lipid ratio (P/L) is given in mol/mol. The plates were dried in air for 1 h, followed by drying under vacuum overnight. The plates were stacked and placed into a hydration chamber with 96% relative humidity at 48 °C for 18–24 h before wrapping the stack in parafilm and plastic foil for the NMR measurements. All solid-state NMR measurements were carried out on a Bruker Avance 500 MHz spectrometer (Bruker Biospin, Karlsruhe, Germany) at 308 K, as previously reported. The oriented membrane samples were placed in the flat-coil probe such that the lipid bilayer normal was aligned parallel to the magnetic field. ^31P-NMR was used to check the quality of the lipid orientation in the samples, using a Hahn echo sequence with phase cycling. The 90° pulse length was 3.9 µs, the echo time was 30 µs, and 17 kHz ^1H SPINAL64 decoupling was used. ^1H-^15N cross-polarization experiments using a CP-MOIST pulse sequence were performed using a double-tuned probe with a low-E flat-coil resonator (3 mm × 9 mm cross-section), employing a ^1H and ^15N radiofrequency field strength of 65 kHz during the cross-polarization and 25 kHz ^1H SPINAL16 [41] decoupling during acquisition. A mixing time of 500 μs was used, and 10,000 to 30,000 scans were accumulated. The acquisition time was 10 ms, and the recycle time was 3 s. The ^15N chemical shift was referenced using the ^1H-NMR signal of water in the sample.

human red blood cells = test: Hemolysis assay; details: peptide concentration 128 µg/mL, 30 min, 37 °C
Method: A hemolysis assay was performed to determine the activity of latarcins against human red blood cells, allowing us to compare the results to those of previous experiments in which rabbit erythrocytes were used. The activity was determined for each latarcin as a function of increasing concentration, up to a maximum of 256 µg of peptides per mL. […] The percentage hemolysis of the other peptides was determined at the highest tested concentration of 256 µg/mL.
The influence of latarcins on human erythrocytes was determined by using a hemolysis assay modified from previously published methods. Blood was obtained from the blood bank of the local hospital in Karlsruhe and stabilized with citrate phosphate dextrose buffer. Erythrocyte suspension (5 mL) was taken up in Tris buffer (45 mL, 172 mM, pH 7.6) at room temperature, gently mixed, and centrifuged (1500 rpm, 10 min). The supernatant solution was removed, and Tris wash was repeated twice with 45 mL as above. The washed erythrocytes (1 mL) were suspended in 9 mL Tris buffer to make the stock cell suspension, which was then further diluted to 0.25% (v/v) at 37 °C before use. Peptide stock solutions were prepared with 1024 µg/mL in Tris buffer containing 10% DMSO, and serial dilutions were prepared in the range of 512 µg/mL to 2 µg/mL as described previously. For the positive control, Triton X-100 (200 µL of 0.2% v/v) was used, and as the negative control, Tris buffer (200 µL, 172 mM) was used. Erythrocyte stock cell suspension (200 µL) was added to each of the samples and incubated for 30 min at 37 °C with gentle shaking before determining the percentage of hemolysis as described previously.

Q: What does the source list for H-SMWSGMWRRKLKKLRNALKKKLKGE-OH [Ltc1]?
A: MIC [1]: below 4 µg/mL; MIC (relative antimicrobial activity) ([1]; relative activity over two Gram-positive and two Gram-negative strains): +++; % Helix (CD) [2]: 66%; OCD: orientational state of the helix [3]: Surface; NMR: orientational state of the helix [4]: Surface

Q: Which MIC [1] does the source give for GLFGKLIKKFGRKAISYAVKKARGKH [Ltc2a] here?
A: below 4 µg/mL

Q: What about the “% Hemolysis” value (human red blood cells) of the same substance?
A: 100%
